We go through 25 molecules from patent US8383629B2, “Inhibitors of 11β-hydroxysteroid dehydrogenase type 1” (Vitae Pharmaceuticals, Inc., priority 2008, dated 2013).

Each structure is given as a SMILES string. pIC50: −log10 of the molar value. A value given as a limit tells only on which side of the number the result lay.

The experiment concerns the target T1, human 11β-HSD1 (Homo sapiens, UniProt P28845).
T1 construct: expressed in transfected cells; host or cells: CHO cells (microsomes)
Briefly: Inhibition of microsomal preparation of 11β-HSD1 (SPA, Biological Test Example 1). The class given is biochemical. The conditions noted are these: for inhibition at 0.1 µM: 100 nM; for inhibition at 0.111 µM: 111 nM; for pIC50: microsomes from CHO cells overexpressing human 11β-HSD1, read-out: IC50 Range. How it is done: The inhibition of microsomal preparation of 11β-HSD1 by compounds of the invention was measured essentially as previously described (K. Solly, S. S. Mundt, H. J. Zokian, G. J. Ding, A. Hermanowski-Vosatka, B. Strulovici, and W. Zheng, High-Throughput Screening of 11-Beta-Hydroxysteroid Dehydrogenase Type 1 in Scintillation Proximity Assay Format. Assay Drug Dev Technol 3 (2005) 377-384). All reactions were carried out at rt in 96 well clear flexible PET Microbeta plates (PerkinElmer). The assay begins by dispensing 49 μl of substrate solution (50 mM HEPES, pH 7.4, 100 mM KCl, 5 mM NaCl, 2 mM MgCl2, 2 mM NADPH and 160 nM [^3H]cortisone (1 Ci/mmol)) and mixing in 1 μL of the test compounds in DMSO previously diluted in half-log increments (8 points) starting at 0.1 mM. After a 10 minute pre-incubation, 50 μL of enzyme solution containing microsomes isolated from CHO cells overexpressing human 11β-HSD1 (10-20 μg/ml of total protein) was added, and the plates were incubated for 90 minutes at rt. The reaction was stopped by adding 50 μl of the SPA beads suspension containing 10 μM 18β-glycyrrhetinic acid, 5 mg/ml protein A coated YSi SPA beads (GE Healthcare) and 3.3 μg/ml of anti-cortisol antibody (East Coast Biologics) in Superblock buffer (Bio-Rad). The plates were shaken for 120 minutes at rt, and the SPA signal corresponding to [^3H]cortisol was measured on a Microbeta plate reader.

T1 sequence (P28845 whole entry): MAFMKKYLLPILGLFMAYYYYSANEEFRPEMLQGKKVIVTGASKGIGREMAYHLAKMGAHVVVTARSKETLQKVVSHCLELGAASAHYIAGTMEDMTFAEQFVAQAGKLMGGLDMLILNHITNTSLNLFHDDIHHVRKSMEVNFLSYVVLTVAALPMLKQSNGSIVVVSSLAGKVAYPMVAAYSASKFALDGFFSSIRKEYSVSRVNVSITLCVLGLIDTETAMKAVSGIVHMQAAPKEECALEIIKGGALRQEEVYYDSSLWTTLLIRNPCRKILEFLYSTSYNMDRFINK

In general, inhibition refers to the change of the read-out against control, counted positive when it falls. Higher therefore signals a response far below the control. As a reminder, the pIC50 is the IC50 on a negative log10 scale, so that one unit is a factor of ten. Consider `COc1ccc2c(c1)CCNC21CCN(C(=O)/C=C/c2ccccc2C(F)(F)F)CC1` [EXAMPLE 30, (E)-1-(6-methoxy-3,4-dihydro-2H-spiro[isoquinoline-1,4′-piperidine]-1′-yl)-3-(2-(trifluoromethyl)phenyl)prop-2-en-1-one], for which the inhibition at 0.1 µM was 90.3%, testing at 0.111 µM gave an inhibition of 94.6% and the pIC50 is > 7.00.

For the molecule `CN1C(=O)C2(CCN(C(=O)/C=C/c3ccccc3C(F)(F)F)CC2)c2ccccc21` [EXAMPLE 31, (E)-1-methyl-1′-(3-(2-(trifluoromethyl)phenyl)acryloyl)spiro[indoline-3,4′-piperidin]-2-one], testing at 0.1 µM gave an inhibition of 99.9% and the pIC50 was > 7.00.

In the case of `COC(=O)c1ccc2c(c1)C1(CCN(C(=O)/C=C/c3ccccc3C(F)(F)F)CC1)C(=O)N2C` [EXAMPLE 32, (E)-methyl 1-methyl-2-oxo-1′-(3-(2-(trifluoromethyl)phenyl)acryloyl)spiro[indoline-3,4′-piperidine]-5-carboxylate], the inhibition at 0.111 µM was found to be 83.4% and the pIC50 was > 7.00.

Turning to `CN1C(=O)C2(CCN(C(=O)/C=C/c3ccccc3C(F)(F)F)CC2)c2cc(C(=O)O)ccc21` [EXAMPLE 33, (E)-1-methyl-2-oxo-1′-(3-(2-(trifluoromethyl)phenyl)acryloyl)spiro[indoline-3,4′-piperidine]-5-carboxylic acid], 0.111 µM produced 31.5% inhibition and the pIC50 was 6.00 to 7.00.

Take `CN(C)C(=O)c1ccc2c(c1)C1(CCN(C(=O)/C=C/c3ccccc3C(F)(F)F)CC1)C(=O)N2C` [EXAMPLE 34, (E)-N,N,1-trimethyl-2-oxo-1′-(3-(2-(trifluoromethyl)phenyl)acryloyl)spiro[indoline-3,4′-piperidine]-5-carboxamide]: the inhibition at 0.111 µM turned out to be 38.2% and the pIC50 is 6.00 to 7.00.

With `CN1C(=O)C2(CCN(C(=O)/C=C/c3ccccc3C(F)(F)F)CC2)c2cc(C(N)=O)ccc21` [EXAMPLE 35, (E)-1-methyl-2-oxo-1′-(3-(2-(trifluoromethyl)phenyl)acryloyl)spiro[indoline-3,4′-piperidine]-5-carboxamide], at 0.111 µM the inhibition was 41.4% and the pIC50 was 6.00 to 7.00.

Turning to `CN1C(=O)C2(CCN(C(=O)/C=C/c3ccccc3C(F)(F)F)CC2)c2cc(C(=O)NCCO)ccc21` [EXAMPLE 36, (E)-N-(2-hydroxyethyl)-1-methyl-2-oxo-1′-(3-(2-(trifluoromethyl)phenyl)acryloyl)spiro[indoline-3,4′-piperidine]-5-carboxamide], the inhibition at 0.111 µM was found to be 0.6% and the pIC50 was 6.00 to 7.00.

For the molecule `CN1CCN(C(=O)c2ccc3c(c2)C2(CCN(C(=O)/C=C/c4ccccc4C(F)(F)F)CC2)C(=O)N3C)CC1` [EXAMPLE 37, (E)-1-methyl-5-(4-methylpiperazine-1-carbonyl)-1′-(3-(2-(trifluoromethyl)phenyl)acryloyl)spiro[indoline-3,4′-piperidin]-2-one], the inhibition at 0.111 µM was determined as 7.1% and the pIC50 is 6.00 to 7.00.

`CNC(=O)c1ccc2c(c1)C1(CCN(C(=O)/C=C/c3ccccc3C(F)(F)F)CC1)C(=O)N2C` [EXAMPLE 38, (E)-N,1-dimethyl-2-oxo-1′-(3-(2-(trifluoromethyl)phenyl)acryloyl)spiro[indoline-3,4′-piperidine]-5-carboxamide]: 0.111 µM produced 21.3% inhibition and the pIC50 was 6.00 to 7.00.

Take `CN1C(=O)C2(CCN(C(=O)/C=C/c3ccccc3C(F)(F)F)CC2)c2cc(C#N)ccc21` [EXAMPLE 39, (E)-1-methyl-2-oxo-1′-(3-(2-(trifluoromethyl)phenyl)acryloyl)spiro[indoline-3,4′-piperidine]-5-carbonitrile]: the inhibition at 0.111 µM amounted to 64.8% and the pIC50 is > 7.00.

Regarding `CCN1C(=O)C2(CCN(C(=O)/C=C/c3ccccc3C(F)(F)F)CC2)c2cc(C(=O)OC)ccc21` [EXAMPLE 40, (E)-methyl 1-ethyl-2-oxo-1′-(3-(2-(trifluoromethyl)phenyl)acryloyl)spiro[indoline-3,4′-piperidine]-5-carboxylate], the inhibition at 0.111 µM worked out at 71.2% and the pIC50 is > 7.00.

For the molecule `O=C(/C=C/c1ccccc1C(F)(F)F)N1CCC2(CC1)C(=O)Nc1ccc(F)cc12` [EXAMPLE 41, (E)-5-fluoro-1′-(3-(2-(trifluoromethyl)phenyl)acryloyl)spiro[indoline-3,4′-piperidin]-2-one], the inhibition at 0.1 µM was 91.2% and the pIC50 is > 7.00.

Regarding `O=C1Cc2ccccc2C2(CCN(C(=O)/C=C/c3ccccc3C(F)(F)F)CC2)N1` [EXAMPLE 42, (E)-1′-(3-(2-(trifluoromethyl)phenyl)acryloyl)-2H-spiro[isoquinoline-1,4′-piperidin]-3(4H)-one], 0.111 µM produced 79.3% inhibition and the pIC50 is > 7.00.

As for `CC1(C)NC(=O)C2(CCN(C(=O)/C=C/c3ccccc3C(F)(F)F)CC2)c2ccccc21` [EXAMPLE 43, (E)-1,1-dimethyl-1′-(3-(2-(trifluoromethyl)phenyl)acryloyl)-1H-spiro[isoquinoline-4,4′-piperidin]-3(2H)-one], at 0.1 µM the inhibition was 90.6% and the pIC50 is > 7.00.

`COc1ccc2c(c1)CCNC21CCN(C(=O)Cc2ccccc2C(F)(F)F)CC1` [EXAMPLE 44, 1-(6-methoxy-3,4-dihydro-2H-spiro[isoquinoline-1,4′-piperidine]-1′-yl)-2-(2-(trifluoromethyl)phenyl)ethanone]: at 0.111 µM the inhibition was 69.9% and the pIC50 was > 7.00.

As for `O=C1NC2(CCN(C(=O)Cc3ccccc3C(F)(F)F)CC2)c2c(Cl)cccc21` [EXAMPLE 45, 7-chloro-1′-(2-(2-(trifluoromethyl)phenyl)acetyl)spiro[isoindoline-1,4′-piperidin]-3-one], the inhibition at 0.111 µM turned out to be 43.2% and the pIC50 was 6.00 to 7.00.

As to `O=C(Cc1ccccc1C(F)(F)F)N1CCC2(CC1)C(=O)Nc1ccccc12` [EXAMPLE 47, 1′-(2-(2-(trifluoromethyl)phenyl)acetyl)spiro[indoline-3,4′-piperidin]-2-one], 0.111 µM produced 83.3% inhibition and the pIC50 was > 7.00.

Regarding `CN1C(=O)C2(CCN(C(=O)Cc3ccccc3C(F)(F)F)CC2)c2ccccc21` [EXAMPLE 48, 1-methyl-1′-(2-(2-(trifluoromethyl)phenyl)acetyl)spiro[indoline-3,4′-piperidin]-2-one], the inhibition at 0.1 µM came out at 80.6%, at 0.111 µM the inhibition was 86.3% and the pIC50 was > 7.00.

Take `O=C1NC2(CCN(C(=O)Cc3ccccc3C(F)(F)F)CC2)c2c(Br)cccc21` [EXAMPLE 49, 7-bromo-1′-(2-(2-(trifluoromethyl)phenyl)acetyl)spiro[isoindoline-1,4′-piperidin]-3-one]: testing at 0.111 µM gave an inhibition of 49.2% and the pIC50 was 6.00 to 7.00.

Consider `O=C1NC2(CCN(C(=O)Cc3ccccc3C(F)(F)F)CC2)c2c(Cl)cc(Cl)cc21` [EXAMPLE 50, 5,7-dichloro-1′-(2-(2-(trifluoromethyl)phenyl)acetyl)spiro[isoindoline-1,4′-piperidin]-3-one], for which the inhibition at 0.111 µM was 68.9% and the pIC50 was 6.00 to 7.00.

Regarding `O=C(O)CC1CC2(CCN(C(=O)Cc3ccccc3C(F)(F)F)CC2)c2c(Cl)cccc21` (stereo not shown) [EXAMPLE 51, 2-(7-chloro-1′(2-(2-(trifluoromethyl)phenyl)acetyl)-2,3-dihydrospiro[indene-1,4′-piperidine]-3-yl)acetic acid], the inhibition at 0.1 µM came out at 76.8% and the pIC50 was > 7.00.

For the molecule `O=C(O)CC1CC2(CCN(C(=O)Cc3ccccc3OC(F)(F)F)CC2)c2c(Cl)cccc21` (stereo not shown) [EXAMPLE 52, 2-(7-chloro-1′-(2-(2-(trifluoromethoxy)phenyl)acetyl)-2,3-dihydrospiro[indene-1,4′-piperidine]-3-yl)acetic acid], the inhibition at 0.1 µM amounted to 61.2% and the negative-log IC50 (pIC50) was > 7.00.

As to `O=C(O)CC1CC2(CCN(C(=O)Cc3ccc(F)cc3C(F)(F)F)CC2)c2c(Cl)cccc21` (stereo not shown) [EXAMPLE 53, 2-(7-chloro-1′(2-(4-fluoro-2-(trifluoromethyl)phenyl)acetyl)-2,3-dihydrospiro[indene-1,4′-piperidine]-3-yl)acetic acid], at 0.1 µM the inhibition was 67.2% and the pIC50 is > 7.00.

Take `O=C(O)CC1CC2(CCN(C(=O)Cc3ccc(Cl)cc3C(F)(F)F)CC2)c2c(Cl)cccc21` (stereo not shown) [EXAMPLE 54, 2-(7-chloro-1′(2-(4-chloro-2-(trifluoromethyl)phenyl)acetyl)-2,3-dihydrospiro[indene-1,4′-piperidine]-3-yl)acetic acid]: at 0.1 µM the inhibition was 71.7% and the pIC50 was > 7.00.

On to `CN1C(=O)c2ccccc2C12CCN(C(=O)CCc1ccccc1C(F)(F)F)CC2` [EXAMPLE 55, 2-methyl-1′-(3-(2-(trifluoromethyl)phenyl)propanoyl)spiro[isoindoline-1,4′-piperidin]-3-one], for which 0.111 µM produced 76.5% inhibition and the pIC50 was > 7.00.
